# Experimental data: patent US20080032953A1, “Method For Inhibiting Prebiotic Effect Of Food Proteins” (Royal Canin SA,, priority 2004, published 2008)
# Experiments:
# [1] = system: aerobic microflora; assay: Growth of cat oral bacterial microflora in artificial saliva with protein, with or without phosphate: aerobic count; type: cell-based
# Method: (§1) For all the experiments, the bacterial microflora of the oral cavity was removed, kept in a conservation medium, and then cultured in artificial saliva according to the following protocol:
# (§2) Two male cats of “European” race, weighing approximately 5.50 kg, were anesthetized with 0.3 ml of a solution of medetomidine at 0.085 g/100 ml (Domitor, ND) and 0.26 ml of a solution of ketamine at […] (Imalgene 1000, ND).
# (§3) In each animal thus immobilized, the saliva was sterilely suctioned with a pipette and the base of the teeth, the gums and the gum pockets were scraped with the back of a sterile scalpel.
# (§4) All the samples were transferred and well-diluted in 100 ml of a sterile conservation medium (thiocolate resazurin medium from Biokar supplemented with 25% of glycerol). The conservation medium containing the samples was transferred into tubes with microbeads (Cryobilles, ND from AES). These tubes were then incubated for 6 hours in an incubator at 37° C., in a jar under CO2, before being frozen for subsequent use.
# (§5) When subsequently used, each tube is thawed at ambient temperature and then incubated for 12 hours at 37° C., in a jar under CO2. The aerobic and anaerobic bacteria are counted according to the methods described hereinafter. The content of each tube is subsequently diluted with the sterile conservation medium so as to have an inoculum of 5000 (3.70 log10) revivable microorganisms in 0.2 ml.
# (§6) The aerobic microflora is cultured and then counted on a trypticase soy medium (Biokar) incubated at 37° C. for 48 hours.
# (§7) The basic artificial saliva is prepared according to table 31 on page 244 of the manual Biological Handbooks—Metabolism, compiled and edited by Philip L. Altman and Dorothy S. Dittmer, published by Federation of American Societies for Experimental Biology, 1968.
# (§8) This basic saliva is supplemented with L-cysteine at a rate of 0.5 g/liter in order to lower its redox potential so as to be able to grow therein both the aerobic bacterial microflora and the anaerobic bacterial microflora. The whole will subsequently be referred to as “artificial saliva”.
# (§9) The artificial saliva is dispensed into test tubes at a rate of 20 ml per tube. Each tube is supplemented or not supplemented with the protein, in the presence or absence of the phosphate to be tested. Each treatment is composed of two tubes.
# (§10) The whole is autoclaved at 110° C. for 15 minutes.
# (§11) Each tube is subsequently inoculated with 0.2 ml of inoculum described above. The whole is incubated in an incubator at 37° C., with shaking.
# (§12) After 24, 48 or 72 hours of incubation, the aerobic flora and the anaerobic flora are counted according to the methods described above.
# (§13) The result of each treatment is the mean of the counts of two test tubes, expressed as log10 of C.F.U. (Colony Forming Units) per ml of artificial saliva.
# [2] = system: anaerobic microflora; assay: Growth of cat oral bacterial microflora in artificial saliva with protein, with or without phosphate: anaerobic count; type: cell-based
# Method: as §1, §2, §3, §4, §5
# (§14) The anaerobic microflora is cultured and then counted on a Schaedler medium (Biokar) supplemented with 5% of sterile defibrinated sheep blood, incubated at 37° C., in a jar under CO2, for 48 hours.
# as §7, §8, §9, §10, §11, §12, §13
# [3] = system: aerobic microflora; assay: Growth of canine oral flora in artificial saliva with soya hydrolysate, with or without tripolyphosphate: aerobic count; type: cell-based, dog; conditions: for Aerobic microflora CFU/ml, 24 hours / Aerobic microflora CFU/ml, 48 hours: Experiment 6, canine flora
# Method: as §1, §5, §6, §7, §8, §9, §10, §11, §12, §13
# (§15) In this assay, the inhibitory effect of sodium tripolyphosphate incorporated at 0, 0.5, 1, 1.5 and 2%, on the prebiotic effect of a dehydrated soya hydrolysate (Nurish 1500 IP, ND from Solea Company, having a titer of 83% of total nitrogenous matter) incorporated into the artificial saliva at 0.5 and at 1%, was tested.
# (§16) In this assay, oral microflora taken from a dog were used.
# [4] = system: anaerobic microflora; assay: Growth of canine oral flora in artificial saliva with soya hydrolysate, with or without tripolyphosphate: anaerobic count; type: cell-based, dog; conditions: for Anaerobic microflora CFU/ml, 24 hours / Anaerobic microflora CFU/ml, 48 hours: Experiment 6, canine flora
# Method: as §1, §5, §14, §7, §8, §9, §10, §11, §12, §13, §15, §16
# [5] = Experiment 4, MP9007 1%, tripolyphosphate 0.5%
# [6] = Experiment 4, MP9007 1%, tripolyphosphate 1%
# [7] = Experiment 4, MP9007 1%, tripolyphosphate 1.5%
# [8] = Experiment 4, MP9007 1%, tripolyphosphate 2%
# [9] = Experiment 4, sodium tripolyphosphate 0.5-2%, MP9007 1%
# [10] = Experiment 5, regardless of the amount incorporated (0.5-2%), soya hydrolysate 1%
# [11] = Experiment 5, soya hydrolysate 1%, tripolyphosphate 0.5%
# [12] = Experiment 5, soya hydrolysate 1%, tripolyphosphate 1%
# [13] = Experiment 5, soya hydrolysate 1%, tripolyphosphate 1.5%
# [14] = Experiment 5, soya hydrolysate 1%, tripolyphosphate 2%
# [15] = tripolyphosphate 0.5%, soya hydrolysate 0.5%
# [16] = tripolyphosphate 0.5%, soya hydrolysate 1%
# [17] = tripolyphosphate 1%, soya hydrolysate 0.5%
# [18] = tripolyphosphate 1%, soya hydrolysate 1%
# [19] = tripolyphosphate 1.5%, soya hydrolysate 0.5%
# [20] = tripolyphosphate 1.5%, soya hydrolysate 1%
# [21] = tripolyphosphate 2%, soya hydrolysate 0.5%
# [22] = tripolyphosphate 2%, soya hydrolysate 1%
# [23] = Experiment 6, soya hydrolysate 0.5 and 1%
# [24] = Experiment 6, tripolyphosphate incorporation rates greater than or equal to 1%
structure (smiles),measurement,setting,value
O=P(O)(O)OP(=O)(O)OP(=O)(O)O [sodium tripolyphosphate],"Aerobic microflora CFU/ml, 24 hours",[1]; [5],5.50 log10 CFU/ml
same,"Aerobic microflora CFU/ml, 48 hours",[1]; [5],6.90 log10 CFU/ml
same,"Aerobic microflora CFU/ml, 24 hours",[1]; [6],4.81 log10 CFU/ml
same,"Aerobic microflora CFU/ml, 48 hours",[1]; [6],6.49 log10 CFU/ml
same,"Aerobic microflora CFU/ml, 24 hours",[1]; [7],4.84 log10 CFU/ml
same,"Aerobic microflora CFU/ml, 48 hours",[1]; [7],6.83 log10 CFU/ml
same,"Aerobic microflora CFU/ml, 24 hours",[1]; [8],<4.00 log10 CFU/ml
same,"Aerobic microflora CFU/ml, 48 hours",[1]; [8],<4.00 log10 CFU/ml
same,"Inhibition of the prebiotic effect of the MP9007 protein, aerobic microflora (in words)",[1]; [9],significantly inhibits
same,"Inhibition of the prebiotic effect of soya hydrolysate, aerobic microflora (in words)",[1]; [10],virtually inhibits the entire prebiotic effect
same,"Aerobic microflora CFU/ml, 24 hours",[1]; [11],<4.00 log10 CFU/ml
same,"Aerobic microflora CFU/ml, 48 hours",[1]; [11],<4.00 log10 CFU/ml
same,"Aerobic microflora CFU/ml, 24 hours",[1]; [12],<4.00 log10 CFU/ml
same,"Aerobic microflora CFU/ml, 48 hours",[1]; [12],<4.00 log10 CFU/ml
same,"Aerobic microflora CFU/ml, 24 hours",[1]; [13],<4.00 log10 CFU/ml
same,"Aerobic microflora CFU/ml, 48 hours",[1]; [13],<4.00 log10 CFU/ml
same,"Aerobic microflora CFU/ml, 24 hours",[1]; [14],<4.00 log10 CFU/ml
same,"Aerobic microflora CFU/ml, 48 hours",[1]; [14],<4.00 log10 CFU/ml
same,"Anaerobic microflora CFU/ml, 24 hours",[2]; [5],5.41 log10 CFU/ml
same,"Anaerobic microflora CFU/ml, 48 hours",[2]; [5],7.04 log10 CFU/ml
same,"Anaerobic microflora CFU/ml, 24 hours",[2]; [6],<4.00 log10 CFU/ml
same,"Anaerobic microflora CFU/ml, 48 hours",[2]; [6],6.36 log10 CFU/ml
same,"Anaerobic microflora CFU/ml, 24 hours",[2]; [7],4.98 log10 CFU/ml
same,"Anaerobic microflora CFU/ml, 48 hours",[2]; [7],6.82 log10 CFU/ml
same,"Anaerobic microflora CFU/ml, 24 hours",[2]; [8],<4.00 log10 CFU/ml
same,"Anaerobic microflora CFU/ml, 48 hours",[2]; [8],<4.00 log10 CFU/ml
same,"Inhibition of the prebiotic effect of the MP9007 protein, anaerobic microflora (in words)",[2]; [9],significantly inhibits
same,"Inhibition of the prebiotic effect of soya hydrolysate, anaerobic microflora (in words)",[2]; [10],virtually inhibits the entire prebiotic effect
same,"Anaerobic microflora CFU/ml, 24 hours",[2]; [11],<4.00 log10 CFU/ml
same,"Anaerobic microflora CFU/ml, 48 hours",[2]; [11],<4.00 log10 CFU/ml
same,"Anaerobic microflora CFU/ml, 24 hours",[2]; [12],<4.00 log10 CFU/ml
same,"Anaerobic microflora CFU/ml, 48 hours",[2]; [12],<4.00 log10 CFU/ml
same,"Anaerobic microflora CFU/ml, 24 hours",[2]; [13],<4.00 log10 CFU/ml
same,"Anaerobic microflora CFU/ml, 48 hours",[2]; [13],<4.00 log10 CFU/ml
same,"Anaerobic microflora CFU/ml, 24 hours",[2]; [14],<4.00 log10 CFU/ml
same,"Anaerobic microflora CFU/ml, 48 hours",[2]; [14],<4.00 log10 CFU/ml
same,"Aerobic microflora CFU/ml, 24 hours",[3]; [15],7.10 log10 CFU/ml
same,"Aerobic microflora CFU/ml, 48 hours",[3]; [15],7.54 log10 CFU/ml
same,"Aerobic microflora CFU/ml, 24 hours",[3]; [16],7.50 log10 CFU/ml
same,"Aerobic microflora CFU/ml, 48 hours",[3]; [16],7.51 log10 CFU/ml
same,"Aerobic microflora CFU/ml, 24 hours",[3]; [17],<3 log10 CFU/ml
same,"Aerobic microflora CFU/ml, 48 hours",[3]; [17],<3 log10 CFU/ml
same,"Aerobic microflora CFU/ml, 24 hours",[3]; [18],<3 log10 CFU/ml
same,"Aerobic microflora CFU/ml, 48 hours",[3]; [18],3.17 log10 CFU/ml
same,"Aerobic microflora CFU/ml, 24 hours",[3]; [19],<3 log10 CFU/ml
same,"Aerobic microflora CFU/ml, 48 hours",[3]; [19],<3 log10 CFU/ml
same,"Aerobic microflora CFU/ml, 24 hours",[3]; [20],<3 log10 CFU/ml
same,"Aerobic microflora CFU/ml, 48 hours",[3]; [20],<3 log10 CFU/ml
same,"Aerobic microflora CFU/ml, 24 hours",[3]; [21],<3 log10 CFU/ml
same,"Aerobic microflora CFU/ml, 48 hours",[3]; [21],<3 log10 CFU/ml
same,"Aerobic microflora CFU/ml, 24 hours",[3]; [22],<3 log10 CFU/ml
same,"Aerobic microflora CFU/ml, 48 hours",[3]; [22],<3 log10 CFU/ml
same,"Inhibition of the prebiotic effect of soya hydrolysate, canine aerobic oral microflora (in words)",[3]; [23],inhibits the prebiotic effect
same,"Inhibitory effect, canine aerobic oral microflora (in words)",[3]; [24],particularly substantial
same,"Anaerobic microflora CFU/ml, 24 hours",[4]; [15],1.92 log10 CFU/ml
same,"Anaerobic microflora CFU/ml, 48 hours",[4]; [15],5.80 log10 CFU/ml
same,"Anaerobic microflora CFU/ml, 24 hours",[4]; [16],6.30 log10 CFU/ml
same,"Anaerobic microflora CFU/ml, 48 hours",[4]; [16],6.24 log10 CFU/ml
same,"Anaerobic microflora CFU/ml, 24 hours",[4]; [17],<3 log10 CFU/ml
same,"Anaerobic microflora CFU/ml, 48 hours",[4]; [17],<3 log10 CFU/ml
same,"Anaerobic microflora CFU/ml, 24 hours",[4]; [18],<3 log10 CFU/ml
same,"Anaerobic microflora CFU/ml, 48 hours",[4]; [18],3.30 log10 CFU/ml
same,"Anaerobic microflora CFU/ml, 24 hours",[4]; [19],<3 log10 CFU/ml
same,"Anaerobic microflora CFU/ml, 48 hours",[4]; [19],<3 log10 CFU/ml
same,"Anaerobic microflora CFU/ml, 24 hours",[4]; [20],<3 log10 CFU/ml
same,"Anaerobic microflora CFU/ml, 48 hours",[4]; [20],<3 log10 CFU/ml
same,"Anaerobic microflora CFU/ml, 24 hours",[4]; [21],<3 log10 CFU/ml
same,"Anaerobic microflora CFU/ml, 48 hours",[4]; [21],<3 log10 CFU/ml
same,"Anaerobic microflora CFU/ml, 24 hours",[4]; [22],<3 log10 CFU/ml
same,"Anaerobic microflora CFU/ml, 48 hours",[4]; [22],<3 log10 CFU/ml
same,"Inhibition of the prebiotic effect of soya hydrolysate, canine anaerobic oral microflora (in words)",[4]; [23],inhibits the prebiotic effect
same,"Inhibitory effect, canine anaerobic oral microflora (in words)",[4]; [24],particularly substantial
